Reference: patent publication EP3811940B1, “SUBSTITUTED 4,5'-BITHIAZOLES AS INHIBITORS OF THE HUMAN DNA TOPOISOMERASE II” (Kemijski Institut, priority 2019, dated 2021)
Where two headings read alike, the source gives them in different places.

Columns and labels:
HepG2 cells = assay: MTS cytotoxicity assay, HepG2; type: cell-based, human; conditions: Homo sapiens, interval in brackets
Text: (§1) We determined the cytotoxicity of the tested compounds on human breast cancer MCF-7 and human hepatocellular carcinoma HepG2 cancer cell lines using MTS assay. Both selected human cancer cell lines are representative and well-established systems for cell-based evaluation of potential anticancer compounds. Etoposide was again used as a positive control (PC).
(§2) In the first step we performed the initial screening of compounds 1-14 at one concentration. […] Exponentially growing cells were exposed to all compounds for 24 h and the results are represented in Figure 3A.
(§3) In vitro cytotoxicity of investigated compounds was evaluated in two human cancer cell lines: the […] cell lines. The HepG2 cells (ATCC) were cultivated at 37 °C and 5 % CO2 in MEME medium (M2414, Sigma) supplemented with 10 % FBS, 2 mM L-Glutamine, 1 % NEAA, 2.2 g/L NaHCO3, 1 mM sodium pyruvate and 100 IU/mL penicillin/ streptomycin and MCF-7 (ATCC) were cultivated in Eagle's MEM medium (M5650, Sigma), supplemented with 10 % fetal bovine serum, 2 mM glutamine, and 100 IU/mL penicillin/streptomycin. After the exposure to the tested compounds the viability of HepG2 and MCF-7 cells was determined by MTS tetrazolium reduction assay. The cells were seeded onto 96-well microplates (Nunc, TermoFisher Scientific, Waltham, MA, USA) at densities of 8000 cells per well (HepG2) and 7000 cells per well (MCF-7) in […] growth medium and incubated overnight to attach. The next day, the growth medium was replaced by the fresh complete growth medium containing appropriate concentrations of the compounds. […] Finally, the absorbance was measured at wavelength of 490 nm using a Microplate Reader (Synergy MX, BioTek, Winooski, VT, USA). […] Assay was performed at 5 concentrations of each compound; 2, 25, 50, 100 and 200 µM for compounds 1, 7 and 14 and 1, 12.5, 25, 50, 100 µM for compounds 9 and 10. […] Cell viability was determined by comparing the OD (optical density) of the wells containing the cells treated with investigated compounds with those of solvent control cells and presented as % of cell viability ± SD. Experiments were performed three times independently each time in at least three replicates. EC50 values were calculated by non-linear regression analysis using GraphPad Prism 7.0 Software. Statistical significance between treated groups and the control was determined by One-way analysis of variance and Dunnett's Multiple Comparison Test.

human topo IIα = target: T1, human topo IIα (Homo sapiens, UniProt P11388); assay: human topo IIα cleavage assay (linear DNA); type: biochemical
T1 construct: purchased Inspiralis (Norwich, UK)
Description: To determine if compounds act as topo II poisons, cleavage assay was performed for compounds 1 and 9.
Selected compounds were tested at four concentrations: 3.9, 31.5, 125 and 500 µM. The reaction was then incubated for additional 30 minutes with 0.2 % SDS and 0.5 µg/µL proteinase K. Subsequently the reaction was stopped by adding 30 µL of chloroform/iso-amyl alcohol ([…]) and 30 µL of Stop Dye (40 % sucrose (w/v), 100 mM Tris.HCl (pH 7.5), 10 mM EDTA, 0.5 µg/mL bromophenol blue), before sample being loaded on the 1 % TAE gel run at 80 V for 2 hours.
Bands were visualized by the ethidium bromide staining for 15 minutes and destaining for subsequent 10 minutes. Gels were scanned using the documentation equipment (GeneGenius, Syngene, Cambridge, UK) and cleavage levels were calculated from the band data obtained by the gel scanning software (GeneTools, Syngene, Cambridge,UK). The human topo IIα cleavage assay was performed in collaboration with Inspiralis (Norwich, UK).

human topo IIβ = target: T2, human topo IIβ (Homo sapiens, UniProt Q02880); assay: kDNA decatenation assay catalysed by human topo IIβ; type: biochemical; conditions: for % Decatenated Assay 1 / % Decatenated Assay 2: % of decatenated kDNA; for % Decatenated Average: average of two assays
T2 construct: purchased Inspiralis (Norwich, UK)
Description: One U of human topo II (α or β) was incubated with 200 ng kDNA in a 30 µL reaction at 37°C for 30 minutes under the following conditions: 50 mM Tris HCl (pH 7.5), 125 mM NaCl, 10 mM MgCl2, 5 mM DTT, 0.5 mM EDTA, 0.1 mg/ml bovine serum albumin (BSA) and 1 mM ATP. Compounds 1 and 9 were serially diluted in DMSO and added to the reaction mixture before the addition of the enzyme. Etoposide was used as a control compound. Each reaction was then stopped by the addition of 30 µL chloroform/iso-amyl alcohol ([…]) and 30 µL Stop Dye (40 % sucrose (w/v), 100 mM Tris.HCl (pH 7.5), 10 mM EDTA, 0.5 µg/mL bromophenol blue), before being loaded on a 1% TAE gel run at 85 V for 90 minutes. Assays were performed at 4 concentrations of ligand: 3.9, 31.5, 125 and 500 µM. The final DMSO concentration in all reactions was 1 % (v/v).
Bands were visualized by the ethidium bromide staining for 15 minutes and destaining for subsequent 10 minutes. Gels were scanned using the documentation equipment (GeneGenius, Syngene, Cambridge, UK) and inhibition levels were calculated from band data obtained with gel scanning software (GeneTools, Syngene, Cambridge,UK). Experiment was performed in duplicates for all compounds.

MCF-7 cells = assay: MTS cytotoxicity assay, MCF-7; type: cell-based, human; conditions: Homo sapiens, interval in brackets
Text: as §1, §2, §3

[1] = HepG2, read-out: EC50 [µM] HepG2 (24h), 24h exposure
[2] = HepG2, 72h exposure, read-out: EC50 [µM] HepG2 (72h)
[3] = MCF7, read-out: EC50 [µM] MCF-7 (24h), 24h exposure
[4] = MCF7, 72h exposure, read-out: EC50 [µM] MCF-7 (72h)

T1 sequence (P11388 whole entry): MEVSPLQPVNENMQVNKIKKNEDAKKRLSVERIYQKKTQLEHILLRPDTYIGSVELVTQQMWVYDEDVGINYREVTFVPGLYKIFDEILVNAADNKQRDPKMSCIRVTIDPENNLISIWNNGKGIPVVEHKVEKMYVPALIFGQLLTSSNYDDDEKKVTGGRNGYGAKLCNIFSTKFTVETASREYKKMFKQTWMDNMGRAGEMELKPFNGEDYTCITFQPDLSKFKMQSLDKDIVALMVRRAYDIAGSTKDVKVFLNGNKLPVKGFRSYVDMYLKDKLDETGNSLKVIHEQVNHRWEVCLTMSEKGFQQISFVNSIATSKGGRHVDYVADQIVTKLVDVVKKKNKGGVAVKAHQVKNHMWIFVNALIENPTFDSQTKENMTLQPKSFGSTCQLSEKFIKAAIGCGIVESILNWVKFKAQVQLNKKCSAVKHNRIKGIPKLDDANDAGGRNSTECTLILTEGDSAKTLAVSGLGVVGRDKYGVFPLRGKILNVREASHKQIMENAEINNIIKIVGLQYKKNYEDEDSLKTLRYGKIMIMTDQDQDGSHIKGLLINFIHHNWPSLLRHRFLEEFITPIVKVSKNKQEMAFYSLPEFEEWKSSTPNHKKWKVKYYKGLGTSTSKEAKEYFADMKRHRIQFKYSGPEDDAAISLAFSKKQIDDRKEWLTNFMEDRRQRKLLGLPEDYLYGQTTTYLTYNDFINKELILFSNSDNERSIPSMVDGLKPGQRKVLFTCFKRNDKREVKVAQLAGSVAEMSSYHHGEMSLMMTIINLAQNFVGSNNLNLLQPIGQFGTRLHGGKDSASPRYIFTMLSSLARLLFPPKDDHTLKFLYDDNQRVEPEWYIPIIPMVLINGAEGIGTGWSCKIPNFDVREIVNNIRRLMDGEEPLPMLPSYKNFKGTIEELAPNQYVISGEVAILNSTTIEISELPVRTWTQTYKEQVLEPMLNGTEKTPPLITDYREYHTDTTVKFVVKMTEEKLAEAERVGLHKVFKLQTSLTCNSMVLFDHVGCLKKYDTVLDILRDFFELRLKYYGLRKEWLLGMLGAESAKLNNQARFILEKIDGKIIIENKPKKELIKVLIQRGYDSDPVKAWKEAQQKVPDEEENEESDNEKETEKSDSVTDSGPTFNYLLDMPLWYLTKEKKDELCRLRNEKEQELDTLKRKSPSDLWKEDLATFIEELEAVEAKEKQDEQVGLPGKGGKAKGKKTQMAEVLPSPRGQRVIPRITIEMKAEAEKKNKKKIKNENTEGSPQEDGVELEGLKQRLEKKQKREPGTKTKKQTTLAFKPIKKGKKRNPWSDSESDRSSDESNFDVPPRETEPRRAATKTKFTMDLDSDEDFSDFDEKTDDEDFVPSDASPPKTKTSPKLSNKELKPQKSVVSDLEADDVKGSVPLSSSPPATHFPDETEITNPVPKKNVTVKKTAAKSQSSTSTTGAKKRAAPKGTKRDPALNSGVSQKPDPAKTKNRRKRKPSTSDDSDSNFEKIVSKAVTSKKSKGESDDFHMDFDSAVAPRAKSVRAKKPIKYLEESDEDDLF
T2 sequence (Q02880 whole entry): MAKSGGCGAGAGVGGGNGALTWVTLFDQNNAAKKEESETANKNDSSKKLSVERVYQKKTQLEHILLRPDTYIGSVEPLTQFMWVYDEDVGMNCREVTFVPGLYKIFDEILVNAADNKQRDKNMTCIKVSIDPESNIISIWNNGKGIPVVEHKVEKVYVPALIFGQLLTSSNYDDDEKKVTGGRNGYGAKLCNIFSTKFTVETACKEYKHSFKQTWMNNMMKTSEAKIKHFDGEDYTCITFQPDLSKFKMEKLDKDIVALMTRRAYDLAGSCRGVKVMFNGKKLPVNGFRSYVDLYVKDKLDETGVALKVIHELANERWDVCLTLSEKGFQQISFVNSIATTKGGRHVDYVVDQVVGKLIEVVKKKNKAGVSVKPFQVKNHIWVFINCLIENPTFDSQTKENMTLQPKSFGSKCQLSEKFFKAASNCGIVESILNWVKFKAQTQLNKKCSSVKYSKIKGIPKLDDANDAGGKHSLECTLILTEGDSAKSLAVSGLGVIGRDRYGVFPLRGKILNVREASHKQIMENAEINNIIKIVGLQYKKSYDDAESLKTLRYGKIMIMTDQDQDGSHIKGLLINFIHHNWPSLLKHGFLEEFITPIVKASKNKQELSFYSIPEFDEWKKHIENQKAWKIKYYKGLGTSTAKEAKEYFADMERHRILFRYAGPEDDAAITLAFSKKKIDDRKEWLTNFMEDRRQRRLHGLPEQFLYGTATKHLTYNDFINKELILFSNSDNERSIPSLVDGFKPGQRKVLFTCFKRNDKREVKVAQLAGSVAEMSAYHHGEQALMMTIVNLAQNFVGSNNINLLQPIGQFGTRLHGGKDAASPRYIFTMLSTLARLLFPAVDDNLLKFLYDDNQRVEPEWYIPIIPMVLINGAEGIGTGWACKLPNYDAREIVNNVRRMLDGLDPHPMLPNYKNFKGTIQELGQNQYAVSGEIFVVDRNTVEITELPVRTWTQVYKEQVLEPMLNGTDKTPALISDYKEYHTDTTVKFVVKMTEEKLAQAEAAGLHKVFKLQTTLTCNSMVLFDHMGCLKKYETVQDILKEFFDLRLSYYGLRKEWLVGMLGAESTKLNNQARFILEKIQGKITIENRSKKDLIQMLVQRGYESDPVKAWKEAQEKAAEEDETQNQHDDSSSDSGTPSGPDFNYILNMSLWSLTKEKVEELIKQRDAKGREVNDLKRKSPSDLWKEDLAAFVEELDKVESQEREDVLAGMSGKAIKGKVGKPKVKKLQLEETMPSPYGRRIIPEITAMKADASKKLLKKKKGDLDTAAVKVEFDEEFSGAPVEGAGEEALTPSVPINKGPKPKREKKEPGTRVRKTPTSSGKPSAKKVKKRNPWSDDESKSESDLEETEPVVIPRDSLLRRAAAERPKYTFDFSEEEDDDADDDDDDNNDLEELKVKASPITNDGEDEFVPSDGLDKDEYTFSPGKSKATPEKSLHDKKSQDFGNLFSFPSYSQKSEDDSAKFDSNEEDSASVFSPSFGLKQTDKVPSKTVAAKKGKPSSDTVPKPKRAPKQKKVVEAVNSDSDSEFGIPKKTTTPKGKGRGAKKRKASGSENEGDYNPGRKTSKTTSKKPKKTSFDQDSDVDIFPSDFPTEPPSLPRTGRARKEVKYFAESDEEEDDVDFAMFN

In the case of `Cc1nc(N)sc1-c1csc(Nc2ccc(C(F)(F)F)cc2)n1` [Compound 1, 4'-methyl-N2-(4-(trifluoromethyl)phenyl)-[4,5'-bithiazole]-2,2'-diamine], the EC50 (HepG2 cells; [1]) is reported as 72.8 µM, the EC50 (HepG2 cells; [2]) is reported as 46.8 µM and the “% Linear Average” value (human topo IIα; 3.9 µM) is reported as 6.81%. For the same molecule, the “% Linear” value (human topo IIα; 3.9 µM, % Linear) was 5.57%, the “% Linear” value (human topo IIα; 3.9 µM, first % Linear column) was 8.05% and the “% Linear Average” value (human topo IIα; 31.5 µM) was 7.04%. For the same molecule, the “% Linear” value (human topo IIα; 31.5 µM, % Linear) was 7.77%, the “% Linear” value (human topo IIα; 31.5 µM, first % Linear column) was 6.32% and the “% Linear Average” value (human topo IIα; 125 µM) was 2.94%. The “% Linear” value (human topo IIα; 125 µM, % Linear) was 2.85%, the “% Linear” value (human topo IIα; 125 µM, first % Linear column) was 3.02% and the “% Linear Average” value (human topo IIα; 500 µM) was 2.72%. For the same molecule, the “% Linear” value (human topo IIα; 500 µM, % Linear) was 2.98%, the “% Linear” value (human topo IIα; 500 µM, first % Linear column) was 2.45% and the “% Decatenated Assay 1” value (human topo IIβ; 3.9 µM) was 87.3%. The “% Decatenated Assay 2” value (human topo IIβ; 3.9 µM) was 95.5%, the “% Decatenated Average” value (human topo IIβ; 3.9 µM) was 91.3% and the inhibition at 31.5 µM (human topo IIβ; 31.5 µM) was 20.8%. For the same molecule, the “% Decatenated Assay 1” value (human topo IIβ; 31.5 µM) was 78.6%, the “% Decatenated Assay 2” value (human topo IIβ; 31.5 µM) was 79.7% and the “% Decatenated Average” value (human topo IIβ; 31.5 µM) was 79.2%. For the same molecule, the “% of inhibition of decatenation” value (human topo IIβ; 125 µM) was “fully inhibited”, the “% Decatenated Assay 1” value (human topo IIβ; 125 µM) was 0% and the “% Decatenated Assay 2” value (human topo IIβ; 125 µM) was 0%. For the same molecule, the “% Decatenated Average” value (human topo IIβ; 125 µM) was 0%, the “% of inhibition of decatenation” value (human topo IIβ; 500 µM) was “fully inhibited” and the “% Decatenated Assay 1” value (human topo IIβ; 500 µM) was 0%. The “% Decatenated Assay 2” value (human topo IIβ; 500 µM) was 0%, the “% Decatenated Average” value (human topo IIβ; 500 µM) was 0% and the EC50 (MCF-7 cells; [3]) was 65 µM. For the same molecule, the EC50 (MCF-7 cells; [4]) was 59.5 µM.

For `CC(=O)Nc1ccc(Nc2nc(-c3sc(NC(C)=O)nc3C)cs2)cc1` [Compound 9, N-(4-((2'-acetamido-4'-methyl-[4,5'-bithiazol]-2-yl)amino)phenyl)acetamide], the EC50 (HepG2 cells; [1]) was 73.5 µM, the EC50 (HepG2 cells; [2]) was 23.5 µM and the “% Linear Average” value (human topo IIα; 3.9 µM) was 6.26%. For the same molecule, the “% Linear” value (human topo IIα; 3.9 µM, % Linear) was 7.03%, the “% Linear” value (human topo IIα; 3.9 µM, first % Linear column) was 5.49% and the “% Linear Average” value (human topo IIα; 31.5 µM) was 7.26%. For the same molecule, the “% Linear” value (human topo IIα; 31.5 µM, % Linear) was 6.75%, the “% Linear” value (human topo IIα; 31.5 µM, first % Linear column) was 7.77% and the “% Linear Average” value (human topo IIα; 125 µM) was 4.72%. For the same molecule, the “% Linear” value (human topo IIα; 125 µM, % Linear) was 4.60%, the “% Linear” value (human topo IIα; 125 µM, first % Linear column) was 4.84% and the “% Linear Average” value (human topo IIα; 500 µM) was 2.60%. The “% Linear” value (human topo IIα; 500 µM, % Linear) was 2.25%, the “% Linear” value (human topo IIα; 500 µM, first % Linear column) was 2.95% and the “% Decatenated Assay 1” value (human topo IIβ; 3.9 µM) was 87.0%. For the same molecule, the “% Decatenated Assay 2” value (human topo IIβ; 3.9 µM) was 75.6%, the “% Decatenated Average” value (human topo IIβ; 3.9 µM) was 81.3% and the “% Decatenated Assay 1” value (human topo IIβ; 31.5 µM) was 80.1%. The “% Decatenated Assay 2” value (human topo IIβ; 31.5 µM) was 73.3%, the “% Decatenated Average” value (human topo IIβ; 31.5 µM) was 76.7% and the inhibition at 125 µM (human topo IIβ; 125 µM) was 73.9%. The “% Decatenated Assay 1” value (human topo IIβ; 125 µM) was 30.5%, the “% Decatenated Assay 2” value (human topo IIβ; 125 µM) was 21.7% and the “% Decatenated Average” value (human topo IIβ; 125 µM) was 26.1%. The inhibition at 500 µM (human topo IIβ; 500 µM) was 88.6%, the “% Decatenated Assay 1” value (human topo IIβ; 500 µM) was 17.5% and the “% Decatenated Assay 2” value (human topo IIβ; 500 µM) was 5.3%. For the same molecule, the “% Decatenated Average” value (human topo IIβ; 500 µM) was 11.4%, the EC50 (MCF-7 cells; [3]) was 15 µM and the EC50 (MCF-7 cells; [4]) was 13.8 µM.

For `COc1cc([C@@H]2c3cc4c(cc3[C@@H](O[C@@H]3O[C@@H]5CO[C@@H](C)O[C@H]5[C@H](O)[C@H]3O)[C@H]3COC(=O)[C@H]23)OCO4)cc(OC)c1O` [Etoposide, etoposide, reference compound], the EC50 (HepG2 cells; [1]) was 196 µM, the EC50 (HepG2 cells; [2]) was 25.8 µM and the “% Linear Average” value (human topo IIα; 3.9 µM) was 17.32%. The “% Linear” value (human topo IIα; 3.9 µM, % Linear) was 11.88%, the “% Linear” value (human topo IIα; 3.9 µM, first % Linear column) was 22.76% and the “% Linear Average” value (human topo IIα; 31.5 µM) was 34.63%. The “% Linear” value (human topo IIα; 31.5 µM, % Linear) was 36.26%, the “% Linear” value (human topo IIα; 31.5 µM, first % Linear column) was 33.00% and the “% Linear Average” value (human topo IIα; 125 µM) was 41.13%. For the same molecule, the “% Linear” value (human topo IIα; 125 µM, % Linear) was 36.91%, the “% Linear” value (human topo IIα; 125 µM, first % Linear column) was 45.35% and the “% Linear Average” value (human topo IIα; 500 µM) was 45.71%. For the same molecule, the “% Linear” value (human topo IIα; 500 µM, % Linear) was 48.40%, the “% Linear” value (human topo IIα; 500 µM, first % Linear column) was 43.03% and the “amount of linear DNA (poison activity)” value (human topo IIα; titration 3.9, 31.5, 125 and 500 µM, result in words) was “increased amount of linear DNA”. The “% Decatenated Assay 1” value (human topo IIβ; 3.9 µM) was 100.0%, the “% Decatenated Assay 2” value (human topo IIβ; 3.9 µM) was 100.0% and the “% Decatenated Assay 1” value (human topo IIβ; 31.5 µM) was 94.0%. The “% Decatenated Assay 2” value (human topo IIβ; 31.5 µM) was 92.8%, the “% Decatenated Average” value (human topo IIβ; 31.5 µM) was 93.4% and the “% Decatenated Assay 1” value (human topo IIβ; 125 µM) was 24.6%. The “% Decatenated Assay 2” value (human topo IIβ; 125 µM) was 23.1%, the “% Decatenated Average” value (human topo IIβ; 125 µM) was 23.9% and the “% Decatenated Assay 1” value (human topo IIβ; 500 µM) was 150%. The “% Decatenated Assay 2” value (human topo IIβ; 500 µM) was 14.4%, the “% Decatenated Average” value (human topo IIβ; 500 µM) was 14.7% and the EC50 (MCF-7 cells; [3]) was 320 µM. For the same molecule, the EC50 (MCF-7 cells; [4]) was 12.6 µM.
